Assay results published in patent publication US12358897B2, “Compounds and method of treating COVID-19” (Pfizer Inc., priority 2020, dated 2025).

These compounds were tested against T1, full-length SARS-CoV-2 3CL protease (Severe acute respiratory syndrome coronavirus 2, UniProt P0DTD1) (assay: SARS-CoV-2 Coronavirus 3C Protease FRET Assay (Dabcyl-KTSAVLQ-SGFRKME-Edans substrate)). Details: 15 nM enzyme, 25 μM peptide substrate, 60 minutes at 23° C.; Morrison equation fit; read-out: Geometric Mean Ki.
T1 construct: measures the activity of full-length SARS-CoV-2 3CL protease
Assay type: biochemical
`COc1cccc2[nH]c(C(=O)N[C@@H](CC(C)C)C(=O)N[C@@H](C[C@@H]3CCNC3=O)C(=O)COC(=O)[C@@H]3CCCN3C)cc12` [Example 28, (3S)-3-({N-[(4-methoxy-1H-indol-2-yl)carbonyl]-L-leucyl}amino)-2-oxo-4-[(3S)-2-oxopyrrolidin-3-yl]butyl 1-methyl-L-prolinate] was tested, and the Ki was 2.47 nM. `COc1cccc2[nH]c(C(=O)N[C@@H](CC(C)C)C(=O)N[C@@H](C[C@@H]3CCNC3=O)C(=O)COC(=O)c3ncn(C)c3C)cc12` [Example 40, (3S)-3-({N-[(4-methoxy-1H-indol-2-yl)carbonyl]-L-leucyl}amino)-2-oxo-4-[(3S)-2-oxopyrrolidin-3-yl]butyl 1,5-dimethyl-1H-imidazole-4-carboxylate] gave a Ki of 306 nM. Work on `COc1cccc2[nH]c(C(=O)N[C@@H](CC(C)C)C(=O)N[C@@H](C[C@@H]3CCNC3=O)C(=O)COC(=O)c3c(C)cccc3F)cc12` [Example 72, (3S)-3-({N-[(4-methoxy-1H-indol-2-yl)carbonyl]-L-leucyl}amino)-2-oxo-4-[(3S)-2-oxopyrrolidin-3-yl]butyl 2-fluoro-6-methylbenzoate] yielded a Ki of 8.91 nM. `COc1cccc2[nH]c(C(=O)N[C@@H](CC(C)C)C(=O)N[C@@H](C[C@@H]3CCNC3=O)C(=O)COC(=O)c3c(C)cncc3C)cc12` [Example 68, (3S)-3-({N-[(4-methoxy-1H-indol-2-yl)carbonyl]-L-leucyl}amino)-2-oxo-4-[(3S)-2-oxopyrrolidin-3-yl]butyl 3,5-di methylpyridine-4-carboxylate] showed a Ki of 7.56 nM. `CC[C@@H](C)C(=O)OCC(=O)[C@H](C[C@@H]1CCNC1=O)NC(=O)[C@H](CC(C)C)NC(=O)c1cc2c(OC)cccc2[nH]1` [Example 19, (3S)-3-({N-[(4-methoxy-1H-indol-2-yl)carbonyl]-L-leucyl}amino)-2-oxo-4-[(3S)-2-oxopyrrolidin-3-yl]butyl (2R)-2-methylbutanoate] gave a Ki of 64.8 nM. Work on `COc1cccc2[nH]c(C(=O)N[C@@H](CC(C)C)C(=O)N[C@@H](C[C@@H]3CCNC3=O)C(=O)COC(=O)c3cn(C)cn3)cc12` [Example 51, (3S)-3-({N-[(4-methoxy-1H-indol-2-yl)carbonyl]-L-leucyl}amino)-2-oxo-4-[(3S)-2-oxopyrrolidin-3-yl]butyl 1-methyl-1H-imidazole-4-carboxylate] yielded a Ki of 152 nM. With `COc1cccc2[nH]c(C(=O)N[C@@H](CC(C)C)C(=O)N[C@@H](C[C@@H]3CCNC3=O)C(=O)COC(=O)C3(C)CCCCC3)cc12` [Example 13, (3S)-3-({N-[(4-methoxy-1H-indol-2-yl)carbonyl]-L-leucyl}amino)-2-oxo-4-[(3S)-2-oxopyrrolidin-3-yl]butyl 1-methylcyclohexanecarboxylate] the Ki was 139 nM. `COc1cccc2[nH]c(C(=O)N[C@@H](CC(C)C)C(=O)N[C@@H](C[C@@H]3CCNC3=O)C(=O)COC(=O)C3(C)CC3)cc12` [Example 21, (3S)-3-({N-[(4-methoxy-1H-indol-2-yl)carbonyl]-L-leucyl}amino)-2-oxo-4-[(3S)-2-oxopyrrolidin-3-yl]butyl 1-methylcyclopropanecarboxylate] gave a Ki of 104 nM. Compound `COc1cccc2[nH]c(C(=O)N[C@@H](CC(C)C)C(=O)N[C@@H](C[C@@H]3CCNC3=O)C(=O)COC(=O)c3ccncc3)cc12` [Example 34, (3S)-3-({N-[(4-methoxy-1H-indol-2-yl)carbonyl]-L-leucyl}amino)-2-oxo-4-[(3S)-2-oxopyrrolidin-3-yl]butyl pyridine-4-carboxylate] has a Ki of 0.598 nM. In the case of `COc1cccc2[nH]c(C(=O)N[C@@H](CC(C)C)C(=O)N[C@@H](C[C@@H]3CCNC3=O)C(=O)COC(=O)c3cncn3C)cc12` [Example 45, (3S)-3-({N-[(4-methoxy-1H-indol-2-yl)carbonyl]-L-leucyl}amino)-2-oxo-4-[(3S)-2-oxopyrrolidin-3-yl]butyl 1-methyl-1H-imidazole-5-carboxylate], the Ki is reported as 40.7 nM. `COc1ccccc1C(=O)OCC(=O)[C@H](C[C@@H]1CCNC1=O)NC(=O)[C@H](CC(C)C)NC(=O)c1cc2c(OC)cccc2[nH]1` [Example 15, (3S)-3-({N-[(4-methoxy-1H-indol-2-yl)carbonyl]-L-leucyl}amino)-2-oxo-4-[(3S)-2-oxopyrrolidin-3-yl]butyl 2-methoxybenzoate] was tested, and the Ki was 147 nM. Compound `COc1cccc2[nH]c(C(=O)N[C@@H](CC(C)C)C(=O)N[C@@H](C[C@@H]3CCNC3=O)C(=O)COC(=O)c3c(C)nn(C)c3C)cc12` [Example 48, (3S)-3-({N-[(4-methoxy-1H-indol-2-yl)carbonyl]-L-leucyl}amino)-2-oxo-4-[(3S)-2-oxopyrrolidin-3-yl]butyl 1,3,5-trimethyl-1H-pyrazole-4-carboxylate] has a Ki of 255 nM. `COc1cccc2[nH]c(C(=O)N[C@@H](CC(C)C)C(=O)N[C@@H](C[C@@H]3CCNC3=O)C(=O)COC(=O)c3cccnc3)cc12` [Example 29, (3S)-3-({N-[(4-methoxy-1H-indol-2-yl)carbonyl]-L-leucyl}amino)-2-oxo-4-[(3S)-2-oxopyrrolidin-3-yl]butyl pyridine-3-carboxylate] was tested, and the Ki was 9.57 nM. With `COc1cccc2[nH]c(C(=O)N[C@@H](CC(C)C)C(=O)N[C@@H](C[C@@H]3CCNC3=O)C(=O)COC(=O)c3c(C)ccnc3C)cc12` [Example 62, (3S)-3-({N-[(4-methoxy-1H-indol-2-yl)carbonyl]-L-leucyl}amino)-2-oxo-4-[(3S)-2-oxopyrrolidin-3-yl]butyl 2,4-dimethylpyridine-3-carboxylate] the Ki was 4.29 nM. For `COc1cccc2[nH]c(C(=O)N[C@@H](CC(C)C)C(=O)N[C@@H](C[C@@H]3CCNC3=O)C(=O)COC(=O)c3c(C)cc(F)cc3C)cc12` [Example 74, (3S)-3-({N-[(4-methoxy-1H-indol-2-yl)carbonyl]-L-leucyl}amino)-2-oxo-4-[(3S)-2-oxopyrrolidin-3-yl]butyl 4-fluoro-2,6-dimethylbenzoate], the Ki was 44.3 nM. `COc1cc(C)c(C(=O)OCC(=O)[C@H](C[C@@H]2CCNC2=O)NC(=O)[C@H](CC(C)C)NC(=O)c2cc3c(OC)cccc3[nH]2)c(C)c1` [Example 73, (3S)-3-({N-[(4-methoxy-1H-indol-2-yl)carbonyl]-L-leucyl}amino)-2-oxo-4-[(3S)-2-oxopyrrolidin-3-yl]butyl 4-methoxy-2,6-dimethyl benzoate] gave a Ki of 117 nM. `CC[C@H](C)C(=O)OCC(=O)[C@H](C[C@@H]1CCNC1=O)NC(=O)[C@H](CC(C)C)NC(=O)c1cc2c(OC)cccc2[nH]1` [Example 18, (3S)-3-({N-[(4-methoxy-1H-indol-2-yl)carbonyl]-L-leucyl}amino)-2-oxo-4-[(3S)-2-oxopyrrolidin-3-yl]butyl (2S)-2-methylbutanoate] gave a Ki of 65.7 nM. In the case of `COc1cccc2[nH]c(C(=O)N[C@@H](CC(C)C)C(=O)N[C@@H](C[C@@H]3CCNC3=O)C(=O)COC(=O)c3ccccc3C)cc12` [Example 11, (3S)-3-({N-[(4-methoxy-1H-indol-2-yl)carbonyl]-L-leucyl}amino)-2-oxo-4-[(3S)-2-oxopyrrolidin-3-yl]butyl 2-methylbenzoate], the Ki is reported as 71.4 nM. In the case of `COc1cccc2[nH]c(C(=O)N[C@@H](CC(C)C)C(=O)N[C@@H](C[C@@H]3CCNC3=O)C(=O)COC(=O)c3ccnn3C)cc12` [Example 42, (3S)-3-({N-[(4-methoxy-1H-indol-2-yl)carbonyl]-L-leucyl}amino)-2-oxo-4-[(3S)-2-oxopyrrolidin-3-yl]butyl 1-methyl-1H-pyrazole-5-carboxylate], the Ki is reported as 5.25 nM. With `COc1cccc2[nH]c(C(=O)N[C@@H](CC(C)C)C(=O)N[C@@H](C[C@@H]3CCNC3=O)C(=O)COC(=O)[C@H]3CCCCN3C)cc12` [Example 37, (3S)-3-({N-[(4-methoxy-1H-indol-2-yl)carbonyl]-L-leucyl}amino)-2-oxo-4-[(3S)-2-oxopyrrolidin-3-yl]butyl (2R)-1-methylpiperidine-2-carboxylate] the Ki was 1.42 nM. `CCOc1nccc(C)c1C(=O)OCC(=O)[C@H](C[C@@H]1CCNC1=O)NC(=O)[C@H](CC(C)C)NC(=O)c1cc2c(OC)cccc2[nH]1` [Example 64, (3S)-3-({N-[(4-methoxy-1H-indol-2-yl)carbonyl]-L-leucyl}amino)-2-oxo-4-[(3S)-2-oxopyrrolidin-3-yl]butyl 2-ethoxy-4-methylpyridine-3-carboxylate] showed a Ki of 34.9 nM. `COc1cccc2[nH]c(C(=O)N[C@@H](CC(C)C)C(=O)N[C@@H](C[C@@H]3CCNC3=O)C(=O)COC(=O)c3cn(C)nc3C)cc12` [Example 39, (3S)-3-({N-[(4-methoxy-1H-indol-2-yl)carbonyl]-L-leucyl}amino)-2-oxo-4-[(3S)-2-oxopyrrolidin-3-yl]butyl 1,3-dimethyl-1H-pyrazole-4-carboxylate] showed a Ki of 91.9 nM. In the case of `COc1cccc(C)c1C(=O)OCC(=O)[C@H](C[C@@H]1CCNC1=O)NC(=O)[C@H](CC(C)C)NC(=O)c1cc2c(OC)cccc2[nH]1` [Example 66, (3S)-3-({N-[(4-methoxy-1H-indol-2-yl)carbonyl]-L-leucyl}amino)-2-oxo-4-[(3S)-2-oxopyrrolidin-3-yl]butyl 2-methoxy-6-methylbenzoate], the Ki is reported as 39.6 nM. `COc1cccc2[nH]c(C(=O)N[C@@H](CC(C)C)C(=O)N[C@@H](C[C@@H]3CCNC3=O)C(=O)COC(=O)c3cnccc3C)cc12` [Example 23, (3S)-3-({N-[(4-methoxy-1H-indol-2-yl)carbonyl]-L-leucyl}amino)-2-oxo-4-[(3S)-2-oxopyrrolidin-3-yl]butyl 4-methylpyridine-3-carboxylate] gave a Ki of 21.2 nM. With `COc1cccc2[nH]c(C(=O)N[C@@H](CC(C)C)C(=O)N[C@@H](C[C@@H]3CCNC3=O)C(=O)COC(=O)c3cnn(C)c3)cc12` [Example 44, (3S)-3-({N-[(4-methoxy-1H-indol-2-yl)carbonyl]-L-leucyl}amino)-2-oxo-4-[(3S)-2-oxopyrrolidin-3-yl]butyl 1-methyl-1H-pyrazole-4-carboxylate] the Ki was 90.6 nM. For `COc1cccc2[nH]c(C(=O)N[C@@H](CC(C)C)C(=O)N[C@@H](C[C@@H]3CCNC3=O)C(=O)COC(=O)c3ccn(C)n3)cc12` [Example 43, (3S)-3-({N-[(4-methoxy-1H-indol-2-yl)carbonyl]-L-leucyl}amino)-2-oxo-4-[(3S)-2-oxopyrrolidin-3-yl]butyl 1-methyl-1H-pyrazole-3-carboxylate], the Ki was 118 nM.
